Active and inactive are the calls of the source.
How the values were obtained:
[1] = tested on: HEK293; assay: cells; assay type: functional, cell-based; conditions: Homo sapiens
[2] = biological target: Nuclear receptor subfamily 0 group B member 1 (Homo sapiens, UniProt P51843); assay: Luminescence-based cell-based high throughput dose response assay for inhibitors of the orphan nuclear receptor subfamily 0, group B, member 1 (DAX1; NR0B1). [Related pubchem assays (depositor defined):AID504766, AID504790]; assay type: functional
Nuclear receptor subfamily 0 group B member 1, sequence (P51843 whole entry): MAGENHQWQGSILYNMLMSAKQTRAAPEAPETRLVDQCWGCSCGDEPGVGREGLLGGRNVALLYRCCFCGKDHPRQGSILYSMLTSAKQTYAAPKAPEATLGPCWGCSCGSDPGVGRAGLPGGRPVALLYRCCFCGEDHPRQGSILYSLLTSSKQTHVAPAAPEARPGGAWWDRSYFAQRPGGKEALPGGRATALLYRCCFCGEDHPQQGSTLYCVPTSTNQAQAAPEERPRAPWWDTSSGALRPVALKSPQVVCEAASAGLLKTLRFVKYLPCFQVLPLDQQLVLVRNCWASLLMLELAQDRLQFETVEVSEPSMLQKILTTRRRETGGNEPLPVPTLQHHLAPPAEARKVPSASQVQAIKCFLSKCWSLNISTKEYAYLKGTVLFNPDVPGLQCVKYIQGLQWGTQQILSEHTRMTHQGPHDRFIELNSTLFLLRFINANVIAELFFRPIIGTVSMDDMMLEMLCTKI

[3] = biological target: T1, Heat shock factor protein 1 (Mus musculus, UniProt P38532); assay: inhibition of MG132-induced HSE-luciferase signal, confirmation, cell-based, NIH3T3, luminescence, dose retest (AID 2382); assay type: functional;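 also: NIH3T3 fibroblasts with HSF1-driven luciferase reporter stressed by proteasome inhibitor MG132; luminescence from HSF1-driven luciferase expression after 8 hours of MG132 stress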
T1 sequence (P38532 whole entry): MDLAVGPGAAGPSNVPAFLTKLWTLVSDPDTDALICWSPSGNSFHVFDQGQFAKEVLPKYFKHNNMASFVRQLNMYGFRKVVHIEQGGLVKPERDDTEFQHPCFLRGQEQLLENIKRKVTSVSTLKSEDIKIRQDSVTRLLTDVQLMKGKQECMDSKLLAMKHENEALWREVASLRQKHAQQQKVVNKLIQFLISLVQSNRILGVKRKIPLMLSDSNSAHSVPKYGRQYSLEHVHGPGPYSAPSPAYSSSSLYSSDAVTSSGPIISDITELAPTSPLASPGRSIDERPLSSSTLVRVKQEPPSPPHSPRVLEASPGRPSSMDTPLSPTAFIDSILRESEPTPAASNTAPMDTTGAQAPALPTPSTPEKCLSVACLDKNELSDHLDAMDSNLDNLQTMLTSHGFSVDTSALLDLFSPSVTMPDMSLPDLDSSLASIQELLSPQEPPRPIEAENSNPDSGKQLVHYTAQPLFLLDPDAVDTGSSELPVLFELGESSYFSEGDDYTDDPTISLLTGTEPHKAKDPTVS

[4] = biological target: Mu-type opioid receptor (Homo sapiens, UniProt P35372); assay: (§1) Counterscreen for agonists of heterodimerization of the mu 1 (OPRM1) and delta 1 (OPRD1) opioid receptors: Luminescence-based cell-based high throughput dose response assay to identify agonists of OPRM1 homodimerization.; assay type: functional
Mu-type opioid receptor, sequence (P35372 whole entry): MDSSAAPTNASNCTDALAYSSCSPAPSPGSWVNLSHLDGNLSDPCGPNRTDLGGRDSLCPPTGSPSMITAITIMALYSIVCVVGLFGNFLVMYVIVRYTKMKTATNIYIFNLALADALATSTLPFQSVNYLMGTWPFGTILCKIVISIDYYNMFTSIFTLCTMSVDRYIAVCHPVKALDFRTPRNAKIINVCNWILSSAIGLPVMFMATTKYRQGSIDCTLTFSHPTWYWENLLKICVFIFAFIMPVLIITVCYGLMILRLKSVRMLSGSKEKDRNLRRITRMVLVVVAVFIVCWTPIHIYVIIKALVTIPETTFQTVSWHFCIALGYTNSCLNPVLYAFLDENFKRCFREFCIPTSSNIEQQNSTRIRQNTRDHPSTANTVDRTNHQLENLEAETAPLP

[5] = biological target: 5-hydroxytryptamine receptor 5A (Homo sapiens, UniProt P47898); assay: Counterscreen for agonists of OPRM1-OPRD1 heterodimerization: luminescence-based cell-based high throughput dose response assay to identify agonists of 5-hydroxytryptamine (serotonin) 5A receptor (HTR5A). [Related pubchem assays (depositor defined):AID504326, AID504355, AID504692, AID504904, AID504905]; assay type: functional
5-hydroxytryptamine receptor 5A, sequence (P47898 whole entry): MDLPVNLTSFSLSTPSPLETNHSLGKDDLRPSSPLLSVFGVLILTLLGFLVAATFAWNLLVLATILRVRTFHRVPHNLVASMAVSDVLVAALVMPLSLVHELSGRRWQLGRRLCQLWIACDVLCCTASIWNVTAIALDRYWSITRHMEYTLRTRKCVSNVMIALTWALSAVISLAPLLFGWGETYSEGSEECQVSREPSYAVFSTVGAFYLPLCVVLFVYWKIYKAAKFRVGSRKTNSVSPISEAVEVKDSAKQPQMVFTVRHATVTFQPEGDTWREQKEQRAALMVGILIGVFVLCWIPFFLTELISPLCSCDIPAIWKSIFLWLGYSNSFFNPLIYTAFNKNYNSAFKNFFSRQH

[6] = biological target: Delta-type opioid receptor (Homo sapiens, UniProt P41143); assay: as §1, with “of OPRD1” for “of OPRM1”, “homodimerization. [Related pubchem assays (depositor defined):AID504326, AID504355, AID504692, AID504904, AID504905]” for “homodimerization.”; assay type: functional
Delta-type opioid receptor, sequence (P41143 whole entry): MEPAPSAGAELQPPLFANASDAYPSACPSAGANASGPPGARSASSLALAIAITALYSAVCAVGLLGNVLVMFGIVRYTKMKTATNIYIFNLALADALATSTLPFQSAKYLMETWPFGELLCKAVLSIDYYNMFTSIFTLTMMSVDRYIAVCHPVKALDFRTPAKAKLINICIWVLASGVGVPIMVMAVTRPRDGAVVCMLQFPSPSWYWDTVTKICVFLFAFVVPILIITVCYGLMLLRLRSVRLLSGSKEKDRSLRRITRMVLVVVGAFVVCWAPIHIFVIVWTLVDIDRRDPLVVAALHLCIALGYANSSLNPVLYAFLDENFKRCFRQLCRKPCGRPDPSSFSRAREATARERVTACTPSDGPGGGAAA

[7] = tested on: INS1; assay: beta cell apoptosis inhibitors, cytokine rescue, dose response, luminescence, retest (AID 449756); assay type: functional, cell-based; conditions: Rattus norvegicus;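 also: cell death triggered by IL-1 beta plus TNF-alpha plus IFN-gamma mixture; protective hits raise ATP signal compared with cytokine alone wells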
[8] = cytotoxicity toward NIH3T3 fibroblasts, dose response, counter-screen, cell-based, ATP luminescence, mouse fibroblasts (AID 2010); assay type: functional;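 also: cells exposed to compound for about 90 hours before reading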
[9] = inhibitors of intracellular T. cruzi replication, confirmation, NIH3T3 host cells, beta-gal luminescence (AID 2044); assay type: functional, cell-based;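 also: intracellular parasites grown in NIH/3T3 mouse fibroblasts as host cells; luminescent beta-galactosidase reporter signal from transgenic T. cruzi replicating inside host cells; inhibitors lower the luminescence signal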
[10] = HepG2 cell cytotoxicity, dose response, cytotoxicity control for Shn3 inhibitor project, CellTiter-Glo, cherry-picked (AID 624134); assay type: functional, cell-based
[11] = HEK293T cytotoxicity, dose response, cytotoxicity control for miR-122 modulator project, cell-based, inhibitor set, cherry-pick, set 2 (AID 720697); assay type: functional
[12] = HEK293T cytotoxicity, dose response, cytotoxicity control for miR-122 modulator project, cell-based, activator set, cherry-pick (AID 720690); assay type: functional;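 also: HEK293T human cells scored for general mammalian cytotoxicity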
[13] = tested on: HEK293; assay: NOD1 signaling inhibitors, primary screen, cell-based, luminescence, uHTS (AID 1578); assay type: functional; conditions: Homo sapiens
[14] = biological target: Apelin receptor (Homo sapiens, UniProt P35414); assay: APJ beta-arrestin recruitment antagonism, SAR follow-up, selectivity assay for CCR6 antagonist project, cell-based, luminescent, enzyme-fragment complementation (AID 588359); assay type: functional
Apelin receptor, sequence (P35414 whole entry, the tested form may be a part): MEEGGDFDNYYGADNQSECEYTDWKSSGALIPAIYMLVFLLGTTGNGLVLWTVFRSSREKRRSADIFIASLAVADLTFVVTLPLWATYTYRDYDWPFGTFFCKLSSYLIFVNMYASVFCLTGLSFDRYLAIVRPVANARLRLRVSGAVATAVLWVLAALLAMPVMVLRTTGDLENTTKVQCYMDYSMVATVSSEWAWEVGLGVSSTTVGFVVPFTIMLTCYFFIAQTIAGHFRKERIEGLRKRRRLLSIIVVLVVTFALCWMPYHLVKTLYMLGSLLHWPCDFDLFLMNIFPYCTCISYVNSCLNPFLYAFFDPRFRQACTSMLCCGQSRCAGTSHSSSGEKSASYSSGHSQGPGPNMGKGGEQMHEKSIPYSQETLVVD

[15] = Shn3 3'UTR reporter inhibitors, dose response, cell-based, Clone20 osteoblasts, firefly luciferase, cherry-picked (AID 624132); assay type: functional;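 also: firefly luciferase luminescence from reporter carrying the Shn3 3'UTR in osteoblasts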
[16] = biological target: Heat shock protein HSP 90-alpha (Homo sapiens, UniProt P07900); assay type: functional, organism-based
[17] = Fluorescence-based cell-based high throughput dose response assay for inhibitors of the interaction of nucleotide-binding oligomerization domain containing 2 (NOD2) and the receptor-interacting serine-threonine kinase 2 (RIPK2).; assay type: functional; conditions: Homo sapiens
[18] = tested on: HEK293; assay: cells; assay type: functional, cell-based; conditions: Homo sapiens; remark: listed apart in the source
[19] = tested on: HEK293; assay: cells; assay type: functional, cell-based; conditions: Homo sapiens; remark: listed apart in the source
[20] = biological target: FAD-linked sulfhydryl oxidase ALR (Homo sapiens, UniProt P55789); assay: inhibitors of human ALR sulfhydryl oxidase, dose response, biochemical, H2O2 detection, luminescence, cherry-pick (AID 493248)
FAD-linked sulfhydryl oxidase ALR, sequence (P55789 whole entry): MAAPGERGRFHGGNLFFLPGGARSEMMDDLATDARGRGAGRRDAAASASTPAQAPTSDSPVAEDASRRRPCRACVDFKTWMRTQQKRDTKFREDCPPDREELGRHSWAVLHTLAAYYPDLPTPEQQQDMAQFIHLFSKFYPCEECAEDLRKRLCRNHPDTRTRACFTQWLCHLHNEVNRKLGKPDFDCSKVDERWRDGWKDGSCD

[21] = biological target: Beta-galactosidase (Escherichia coli, UniProt Q8VNN2); assay: beta-galactosidase enzyme inhibitors and activators, dose response, artefact control for CCR6 antagonist project, biochemical, E. coli enzyme, set 3 (AID 504712); assay type: functional
Beta-galactosidase, sequence (Q8VNN2 whole entry): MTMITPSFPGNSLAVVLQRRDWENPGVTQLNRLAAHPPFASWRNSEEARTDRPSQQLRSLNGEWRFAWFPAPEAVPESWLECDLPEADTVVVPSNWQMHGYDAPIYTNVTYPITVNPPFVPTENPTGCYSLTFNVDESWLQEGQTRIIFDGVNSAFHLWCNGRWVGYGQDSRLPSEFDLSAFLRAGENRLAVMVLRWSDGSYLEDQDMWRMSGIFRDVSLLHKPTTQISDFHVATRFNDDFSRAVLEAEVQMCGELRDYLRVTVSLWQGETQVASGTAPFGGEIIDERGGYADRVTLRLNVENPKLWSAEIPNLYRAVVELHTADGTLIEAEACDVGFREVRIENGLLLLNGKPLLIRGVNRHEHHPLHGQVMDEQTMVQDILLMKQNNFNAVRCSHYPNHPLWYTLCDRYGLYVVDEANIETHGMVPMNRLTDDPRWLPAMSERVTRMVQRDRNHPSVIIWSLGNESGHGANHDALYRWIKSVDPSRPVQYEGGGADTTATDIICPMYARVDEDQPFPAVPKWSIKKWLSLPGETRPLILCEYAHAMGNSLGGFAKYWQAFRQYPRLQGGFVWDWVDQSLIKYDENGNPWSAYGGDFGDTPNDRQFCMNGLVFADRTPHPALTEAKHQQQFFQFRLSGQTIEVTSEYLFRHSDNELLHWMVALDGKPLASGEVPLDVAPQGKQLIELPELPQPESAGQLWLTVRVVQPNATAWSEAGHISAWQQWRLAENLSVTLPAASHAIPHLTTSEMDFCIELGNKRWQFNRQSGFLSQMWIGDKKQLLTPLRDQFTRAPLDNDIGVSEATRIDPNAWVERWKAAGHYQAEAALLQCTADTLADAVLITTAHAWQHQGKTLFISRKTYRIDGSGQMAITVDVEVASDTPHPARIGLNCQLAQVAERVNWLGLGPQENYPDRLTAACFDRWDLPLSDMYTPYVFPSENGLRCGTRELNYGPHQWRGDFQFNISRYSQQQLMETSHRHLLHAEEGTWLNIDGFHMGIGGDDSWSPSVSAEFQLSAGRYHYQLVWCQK

[22] = tested on: HEK293; assay: NOD2 signaling inhibitors in MDP-stimulated cells, cell-based, uHTS, luminescence (AID 2001); assay type: functional; conditions: Homo sapiens
[23] = biological target: Nucleotide-binding oligomerization domain-containing protein 2 (Homo sapiens, UniProt Q9HC29); assay: NOD2 signaling inhibitors, cell-based, luminescence, uHTS, HEK293 (AID 1566); assay type: functional
Nucleotide-binding oligomerization domain-containing protein 2, sequence (Q9HC29 whole entry, the tested form may be a part): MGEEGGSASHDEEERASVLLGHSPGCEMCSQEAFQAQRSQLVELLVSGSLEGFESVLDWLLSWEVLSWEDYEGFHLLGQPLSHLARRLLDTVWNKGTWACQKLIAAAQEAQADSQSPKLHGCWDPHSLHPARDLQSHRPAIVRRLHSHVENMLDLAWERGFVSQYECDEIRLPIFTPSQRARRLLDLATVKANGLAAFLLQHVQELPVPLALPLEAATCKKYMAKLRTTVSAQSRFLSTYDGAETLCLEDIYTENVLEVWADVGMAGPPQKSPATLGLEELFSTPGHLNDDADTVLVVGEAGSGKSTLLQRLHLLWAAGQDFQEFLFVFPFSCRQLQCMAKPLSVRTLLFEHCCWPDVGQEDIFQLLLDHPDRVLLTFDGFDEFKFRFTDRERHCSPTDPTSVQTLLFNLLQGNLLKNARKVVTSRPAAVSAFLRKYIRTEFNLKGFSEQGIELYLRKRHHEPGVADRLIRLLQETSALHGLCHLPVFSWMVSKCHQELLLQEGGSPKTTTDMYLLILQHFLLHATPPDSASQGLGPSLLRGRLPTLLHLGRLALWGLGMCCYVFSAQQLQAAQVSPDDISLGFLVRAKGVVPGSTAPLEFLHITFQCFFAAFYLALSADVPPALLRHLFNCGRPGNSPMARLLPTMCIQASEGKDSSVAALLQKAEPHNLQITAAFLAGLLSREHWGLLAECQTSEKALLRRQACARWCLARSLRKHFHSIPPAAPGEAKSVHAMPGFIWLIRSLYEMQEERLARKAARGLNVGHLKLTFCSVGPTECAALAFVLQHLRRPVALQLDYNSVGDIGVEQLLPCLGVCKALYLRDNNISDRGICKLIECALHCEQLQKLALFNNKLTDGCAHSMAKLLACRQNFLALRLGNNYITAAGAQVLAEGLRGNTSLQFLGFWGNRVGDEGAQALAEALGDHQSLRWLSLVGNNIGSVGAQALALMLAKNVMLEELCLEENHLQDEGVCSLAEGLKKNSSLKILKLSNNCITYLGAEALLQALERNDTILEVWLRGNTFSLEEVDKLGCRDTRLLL

[24] = tested on: HEK293; assay: cells; assay type: functional, cell-based; conditions: Homo sapiens; remark: listed apart in the source
[25] = miR-122 activators in hepatoma reporter cells, dose response, cell-based, Huh7 psiCHECK-miR122, Renilla luciferase, cherry-picked (AID 651956); assay type: functional;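 also: huh7 hepatoma cells stably carrying a psiCHECK-2 miR-122 sensor plasmid; renilla luciferase signal reporting endogenous miR-122 activity after 48 h compound exposure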
[26] = control 3'UTR Renilla luciferase suppression, dose response, counter-screen for Shn3 inhibitor project, cell-based, Clone20-Shn3RL, cherry-picked (AID 624133); assay type: functional

O=C(COc1ccc(Cl)cc1Cl)c1ccc[nH]1
IC50 [1]: > 67.6 µM (inactive)
IC50 [2]: > 67.6 µM (inactive)

COc1ccc(/C=C/C(=O)NC(=S)NCCc2ccc(OC)c(OC)c2)cc1
EC50 [3]: 13.6 µM (active)
EC50 [4]: > 92.5 µM (inactive)
EC50 [5]: > 92.5 µM (inactive)
EC50 [6]: > 92.5 µM (inactive)

Cc1ccc(S(=O)(=O)c2ccc([N+](=O)[O-])cn2)cc1
AC50 [7]: > 260 µM (inactive)
EC50 [8]: 3.42 µM (active)
EC50 [9]: 2.38 µM (active)
AC50 [10]: 12.1 µM (active)
AC50 [11]: 7.35 µM (active)
AC50 [12]: 4.36 µM (active)
EC50 [13]: 6.69 µM (active)
IC50 [14]: 23.4 µM (inactive)
AC50 [15]: 3.85 µM (active)
AC50 [16]: 4.18 µM (active)
IC50 [17]: 6.33 µM (active)
IC50 [18]: > 20 µM (inactive)
IC50 [19]: 5.37 µM (active)
AC50 [20]: 15.3 µM (active)
IC50 [21]: > 66.6 µM (inactive)
IC50 [22]: 6.5 µM (active)
EC50 [23]: > 20 µM (inactive)
IC50 [24]: > 20 µM (inactive)
AC50 [25]: 10.6 µM (active)
AC50 [26]: 3.26 µM (active)
